From patent publication US10167326B2, “Alpha-fetoprotein “ring and tail” peptides” (ALBANY MEDICAL COLLEGE, priority 2010, dated 2019)
Non-standard residues stand in square brackets, D forms with d. Residues, ends and D or L forms follow the SMILES beside them. Groups on a side chain read outwards from the residue. No end group written: not given here. Hyp = O=C(O)[C@@H]1C[C@@H](O)CN1

Columns and labels:
[1] = tested on: E2-stimulated immature mouse uterine growth; assay: immature mouse uterine growth assay (inhibition of E2-stimulated uterine growth); type: in vivo; details: for inhibition of E2-stimulated uterine growth, dose response profile: over a number of doses (FIG. 6); for Inhibition ± S.E, % Mouse uterine growth Intraperitoneal: 1 μg/mouse intraperitoneally, E2-stimulated, mean±S.E. (n=5), * p<0.05 vs E2 alone
Method: Four cyclic peptides of decreasing ring size (Table 1) were synthesized and were assessed for antiestrogenic activity using the immature mouse uterine assay. Negative control mice received saline alone. Positive control mice received E2 alone. AFPep was used as a positive control peptide and cyclic Scr was used as a peptide control. Mice were injected intraperitoneally (i.p.) with each of these peptides at a dose of 1 μg/mouse. One hour later mice received 0.5 ug 17β-estradiol (E2) i.p. Twenty-two hours later uteri were dissected, weighed, and normalized to body weight. The results are reported as mean±S.E (n=5) for four independent experiments.
(§1) A ‘tail’ was attached to a nine-amino acid ring and included 1 or 2 amino acids defined as hydrophilic or hydrophobic based on the nature of their side-chains. Tails comprising the following amino acid(s): serine (S), tyrosine (Y), […], glutamic acid (E), phenylalanine-serine (FS) and tyrosine-isoleucine (YI) represent hydrophilic tails and tails comprising the following amino acid(s), phenylalanine (F), isoleucine (I) and phenylalanine-isoleucine (FI) are hydrophobic tails. All peptides were administered at a dose of 1 μg/mouse intraperitoneally or 10 μg/mouse by oral gavage. Values are presented as mean±S.E. (n=5). In culture, T47D cells were treated with each peptide at a concentration of 1 μM. Values are presented as mean±S.E (n=6). […] Wilcoxon Rank Sum Test.
(§2) All peptides were administered at a dose of 1 μg/mouse intraperitoneally or 10 μg/mouse by oral gavage. Values are presented as mean±S.E (n=5). In culture, T47D cells were treated with each peptide at a concentration of 1 μM. Values are presented as mean±S.E (n=6). […] Wilcoxon Rank Sum Test.
To evaluate peptide-induced inhibition by the peptide of the present invention of estrogen-stimulated proliferation of normal tissue, the immature mouse uterine growth assay was utilized. Briefly, 13-15 day-old Swiss/Webster female mice, 6-8 g in body weight, were distributed into treatment groups of 5 mice per group so that each group contained animals of the same range of body weight. The peptide of the invention was injected i.p., s.c., or p.o. into the mice. One hour later, estradiol (E2) or vehicle control for E2 was injected i.p. Twenty-two hours after the second injection, uteri were harvested, trimmed free of mesenteries, and immediately weighed. The uterine weights were normalized to mouse body weights to compensate for differences in body weight among litters of the same age. Experiments employed a minimum of five mice per group and the mean normalized uterine weight±SE for each group was calculated. Percent growth inhibition in a test group was calculated from normalized uterine wet weights as described below.
The ability to inhibit E2-stimulated growth of normal mouse uterus was used as a screening assay for biological activity of AFPep analogs. In general, inhibitory activity ≥20% is considered to be biologically significant. Each analog's inhibitory effect on E2-stimulated growth was compared to AFPep (a positive control) and to PGVGQ (SEQ ID NO: 51)(a negative control). PGVGQ (SEQ ID NO: 51 amino acids 478-482 of AFP) is a portion of the primary structure of AFP near to the anti-cancer active site of AFP and is comprised of amino acids (P, V, and G) that are important components of AFPep.

[2] = tested on: T47D human breast cancer cells; assay: T47D cell proliferation assay in the presence of E2; type: cell-based; details: different concentrations in vitro (FIG. 7)
[3] = tested on: MCF-7 human breast cancer xenograft; assay: E2-supplemented MCF-7 human breast cancer xenograft assay in SCID mice; type: in vivo, mouse; details: E2 pellets, 10 μg s.c., 10 μg i.p. or 100 μg p.o. once daily day 1 to day 20 (FIG. 8)
Excerpt: To determine the effectiveness of cyclo[EKTOVNOGN] (SEQ ID NO: 33)FI as a potential cancer therapeutic agent in a clinically relevant model, we assessed the effect of cyclo[EKTOVNOGN] (SEQ ID NO: 33)FI on E2-supplemented MCF-7 human breast cancer xenograft growth using different routes of administration. Briefly, a piece of MCF-7 human breast cancer measuring approximately 2 mm in average diameter was implanted under the kidney capsule of SCID mice. Mice were supplemented with E2 pellets implanted subcutaneously, at the time of tumor implantation, for a steady state of E2 at 10^−9M. Mice were treated with 10 μg subcutaneously (s.c.), 10 μg intraperitoneally (i.p.) or 100 μg orally (p.o.) cyclo [EKTOVNOGN] (SEQ ID NO: 33) FI was administered once daily from day 1 to day 20 of the experiment. Tumor size was measured as described in materials and methods. Data is presented as mean±S.E (n=5). After 20 days of treatment, the percentage change in tumor volume for each cyclo [EKTOVNOGN] […] One-way ANOVA followed by Tukey's multiple comparison test. *p<0.01 vs. E2.
The peptides of the invention were evaluated for their ability to inhibit tumor growth in a human tumor xenograft assay. Briefly, MCF-7 human breast cancer cells were obtained from ATCC® (Rockville, Md.) and were grown in DMEM supplemented with 5% FCS, 1% non-essential amino acids, 10 ng/ml insulin, 2 mM L-glutamine, 100 units/ml penicillin, and 100 μg/ml streptomycin. MCF-7 cells from culture were solidified into a fibrin clot. The tumor-containing clots were cut into pieces about 1.5 mm in diameter and implanted under the kidney capsule of severe combined immunodeficient (ICR-SCID) mice (Taconic Farms, Germantown, N.Y.) as described in Bennett et al. (Clin. Cancer Res. 1998; 4:2877-84).
Estrogen supplementation of mice was required for the growth of MCF-7 tumors. […] Tumor size was evaluated during survival laparotomy using a dissecting microscope at the time of tumor implantation and at days 15 and 30 after tumor implantation. […]

[4] = tested on: T47D human breast cancer cells; assay: T47D cell proliferation assay in the presence of E2; type: cell-based; details: peptide 1 μM; E2-stimulated; mean±S.E (n=6); * p<0.05 vs E2 alone
Method: Anticancer activity of the cyclic peptides was also evaluated using the T47D cell proliferation assay. T47D cells were cultured on collagen-IV coated 24-well plates and treated with each of above peptides in the presence of E2. Final peptide concentrations of each peptide were 10^−6 M and final E2 concentration was 1 nM. Values are reported as mean±SEM (n=6) of four independent experiments. […] One-way ANOVA followed by Tukey's multiple comparison test. p≤0.05.
as §1, §2

[5] = tested on: Estrogen independent (ER−) MDA MB231 cells; assay: MDA MB231 cell growth (MTT assay); type: cell-based, human; details: 10^−6M, 7 days, MTT (FIG. 9)
Method: Estrogen independent (ER^−)MDA MB231 cells were plated at 20,000 cells/well/ml in a collagen-IV coated 24-well plate. The next day, cells were treated with vehicle (0.1% ethanol), AFPep, cyclo[EKTOVNOGN] (SEQ ID NO: 33) YI, for 7 days. Each peptide was treated at 10^−6M. Cell proliferation was determined by MTT assay. Each value is the mean±S.E. (n=4) of three independent experiments.

Compound | inhibition of E2-stimulated uterine growth, dose response profile [1] | inhibition of E2-stimulated T47D human breast cancer cell growth, concentration response profile [2] | Inhibition ± S.E, % T47D cell proliferation [4] | other results
TOVNOGNEK (T[Hyp]VN[Hyp]GNEK) | superior dose response profile | superior dose response profile |  | inhibition of MCF-7 xenograft growth (change in tumor volume) [3]: efficacy equivalent to AFPep
CC[C@H](C)[C@H](NC(=O)C[C@@H]1NC(=O)CNC(=O)[C@@H]2C[C@@H](O)CN2C(=O)[C@H](CC(N)=O)NC(=O)[C@H](C(C)C)NC(=O)[C@@H]2C[C@@H](O)CN2C(=O)[C@H]([C@@H](C)O)NC(=O)[C@H](CCCCN)NC(=O)[C@H](CCC(=O)O)NC1=O)C(N)=O [cyclo[EKTOVNOGN]I] (cyclo(EKT[Hyp]VN[Hyp]GD([Ile-NH2]))) |  |  | 55 ± 6* % | 
cyclo[EKTOVNOGN]FS |  |  |  | Inhibition ± S.E, % Mouse uterine growth Intraperitoneal [1]: 7 ± 3%
cyclo[EKTOVGOGN]K (EKT[Hyp]VG[Hyp]GNK; bridge (positions not given here); not fully specified (bridges); printed as cyclo[EKTOVGOGN]K; also: cyclic ring with lysine tail, ring closure and tail attachment not given here) |  |  |  | Inhibition ± S.E, % Mouse uterine growth Intraperitoneal [1]: 7 ± 3%
CC[C@H](C)[C@H](NC(=O)[C@H](Cc1ccccc1)NC(=O)C[C@@H]1NC(=O)CNC(=O)[C@@H]2C[C@@H](O)CN2C(=O)[C@H](CC(N)=O)NC(=O)[C@H](C(C)C)NC(=O)[C@@H]2C[C@@H](O)CN2C(=O)[C@H]([C@@H](C)O)NC(=O)[C@H](CCCCN)NC(=O)[C@H](CCC(=O)O)NC1=O)C(N)=O [cyclo[EKTOVNOGN]FI] (cyclo(EKT[Hyp]VN[Hyp]GD([Phe-Ile-NH2]))) | significantly inhibited E2-stimulated growth in a dose-dependent manner and maintained its effectiveness at very high doses | inhibited E2-stimulated T47D human breast cancer cell growth in a concentration-dependent manner, even at high concentrations | 66 ± 2* % | efficacy in inhibition of E2-stimulated growth compared with AFPep ([1]; in vivo and in vitro, summary statements): more effective at inhibiting E2-stimulated growth than AFPep; effect on growth of ER− MDA MB 231 cells in culture [5]: no effect; inhibition of MCF-7 xenograft growth (change in tumor volume) [3]: significantly different from the E2 alone group; inhibition of MCF-7 xenograft growth (change in tumor volume) ([3]; listed as cyclo [ETKOVNOGN] FI): significantly inhibited the growth of tumor xenografts
CC[C@H](C)[C@H](NC(=O)[C@H](Cc1ccc(O)cc1)NC(=O)C[C@@H]1NC(=O)CNC(=O)[C@@H]2C[C@@H](O)CN2C(=O)[C@H](CC(N)=O)NC(=O)[C@H](C(C)C)NC(=O)[C@@H]2C[C@@H](O)CN2C(=O)[C@H]([C@@H](C)O)NC(=O)[C@H](CCCCN)NC(=O)[C@H](CCC(=O)O)NC1=O)C(N)=O [cyclo[EKTOVNOGN]YI] (cyclo(EKT[Hyp]VN[Hyp]GD([Tyr-Ile-NH2]))) | very little antiestrogenic activity | ineffective | 24 ± 3% | 
TOVNO (T[Hyp]VN[Hyp]) | undesirable | undesirable |  | 
